According to ChEMBL document CHEMBL1155865, “Discovery of triazolinone non-nucleoside inhibitors of HIV reverse transcriptase” (Bioorg Med Chem Lett, 2008):
pEC50, pIC50, pKd: −log10 of the molar value. Values after ≈ are worked out from the molar mass of the structure shown. Active and inactive are the calls of the source. The calls are words filed in the database; no cut-off is given here.

Experiments:
[1] = Clearance in dog at 0.5 mg/kg, iv or 2 mg/kg, po; format: ADME, organism-based, Canis lupus familiaris; settings: in vivo
[2] = tested on: Human immunodeficiency virus 1; assay: Antiviral activity against HIV1 with reverse transcriptase Y181C mutant in MT4 cells assessed as inhibition of virus-induced cytopathic effect; format: functional, organism-based; settings: Human immunodeficiency virus 1, MT4
[3] = tested on: Human immunodeficiency virus 1; assay: Antiviral activity against HIV1 with wild type reverse transcriptase in MT4 cells assessed as inhibition of virus-induced cytopathic effect; format: functional, organism-based; settings: Human immunodeficiency virus 1, MT4
[4] = Bioavailability in dog at 2 mg/kg, po; format: ADME, organism-based, Canis lupus familiaris; settings: in vivo
[5] = AUC (0 to infinity) in dog at 0.5 mg/kg, iv or 2 mg/kg, po; format: ADME, organism-based, Canis lupus familiaris; settings: plasma
[6] = Cmax in dog at 0.5 mg/kg, iv or 2 mg/kg, po; format: ADME, organism-based, Canis lupus familiaris; settings: in vivo
[7] = Solubility of compound at pH 6.5; format: physicochemical; settings: buffer
Caco-2 = assay: Apparent permeability across human Caco-2 cells; format: ADME, cell-based
[8] = tested on: Human immunodeficiency virus 1; assay: Antiviral activity against HIV1 with reverse transcriptase […] mutant in MT4 cells assessed as inhibition of virus-induced cytopathic effect; format: functional, organism-based; settings: Human immunodeficiency virus 1, MT4
[9] = biological target: T1, Human immunodeficiency virus type 1 reverse transcriptase (Human immunodeficiency virus 1, UniProt Q72547); assay: (§1) Binding affinity to wild type HIV1 reverse transcriptase by SPR assay
[10] = tested on: Human immunodeficiency virus 1; assay: Antiviral activity against HIV1 with reverse transcriptase K103N/Y181C mutant in MT4 cells assessed as inhibition of virus-induced cytopathic effect; format: functional, organism-based; settings: Human immunodeficiency virus 1, MT4
[11] = biological target: T1, Human immunodeficiency virus type 1 reverse transcriptase; assay: Inhibition of wild type HIV1 reverse transcriptase polymerase activity by scintillation counting assay
Liver microsomes = assay: Clearance in rat liver microsome per mg of protein; format: ADME
[12] = biological target: Human immunodeficiency virus type 1 reverse transcriptase (Human immunodeficiency virus 1) (UniProt Q72547); assay: as §1
Cytochrome P450 3A4 = Cytochrome P450 3A4 (Homo sapiens, UniProt P08684); assay: Inhibition of CYP3A4; format: ADME
Sequence of Cytochrome P450 3A4 (P08684 whole entry): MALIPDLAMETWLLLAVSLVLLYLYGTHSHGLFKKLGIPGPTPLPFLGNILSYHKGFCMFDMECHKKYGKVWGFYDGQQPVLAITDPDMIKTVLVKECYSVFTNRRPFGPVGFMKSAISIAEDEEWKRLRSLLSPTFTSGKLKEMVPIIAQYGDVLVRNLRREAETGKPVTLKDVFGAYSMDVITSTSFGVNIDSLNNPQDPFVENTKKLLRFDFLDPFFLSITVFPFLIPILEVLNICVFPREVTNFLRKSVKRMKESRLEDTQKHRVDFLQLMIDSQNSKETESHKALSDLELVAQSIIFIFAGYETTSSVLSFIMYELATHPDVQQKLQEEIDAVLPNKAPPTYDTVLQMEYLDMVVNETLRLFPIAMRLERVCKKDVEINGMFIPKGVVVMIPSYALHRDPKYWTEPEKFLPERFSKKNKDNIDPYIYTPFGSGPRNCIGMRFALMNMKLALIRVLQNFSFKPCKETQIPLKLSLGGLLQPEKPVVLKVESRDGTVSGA

[13] = tested on: Human immunodeficiency virus 1; assay: Antiviral activity against HIV1 with reverse transcriptase K103N/L100I mutant in MT4 cells assessed as inhibition of virus-induced cytopathic effect; format: functional, organism-based; settings: Human immunodeficiency virus 1, MT4

Row | pIC50 [11] | Compound | pEC50 [3] | pEC50 [10] | also measured
1 | 5.24 | O=c1[nH]nc(Cc2ccc(Cl)c(Oc3cccc(Br)c3)c2)o1 |  |  | 
2 | < 4.00 | Cn1c(Cc2ccc(Br)cc2)n[nH]c1=O |  |  | pKd [9]: 3.41
3 | < 4.00 | Cn1c(Cc2ccccc2)n[nH]c1=O |  |  | Activity [12]: inactive
4 | 6.16 | Cn1c(Cc2ccc(Cl)c(Oc3cccc(Br)c3)c2)n[nH]c1=O |  |  | 
5 | 6.28 | O=c1[nH]nc(Cc2ccc(Cl)c(Oc3cccc(Br)c3)c2)s1 |  |  | 
6 | 4.74 | Cn1c(Cc2cccc(Oc3ccccc3)c2)n[nH]c1=O |  |  | pKd [9]: 5.52
7 | 6.64 | CN(C)c1cc(Cc2ccc(Cl)c(Oc3cccc(Br)c3)c2)n[nH]c1=O |  |  | 
8 | 6.82 | CN1CC(Cc2ccc(Cl)c(Oc3cccc(Br)c3)c2)=NNC1=O |  |  | 

Continued, molecule first:

Row | Compound | pIC50 [11] | pEC50 [3] | pEC50 [10] | also measured
9 | Cn1c(Cc2ccc(Br)c(Oc3cc(Cl)cc(C#N)c3)c2F)n[nH]c1=O | 8.30 | 8.70 | 8.05 | clearance [1]: 1.5 mL/min/kg; pEC50 [2]: 8.30; bioavailability [4]: 74%; AUC(0-inf) [5]: 38.4 µM·h; Cmax [6]: 1300 nM; solubility [7]: 2.4 µg/mL (≈ 5.48 µM); Papp (Caco-2): 15.1 10^-6 cm/s; pEC50 [8]: 9.00; pKd [9]: 8.40
10 | C[C@H]1CC(Cc2ccc(Cl)c(Oc3cc(Cl)cc(C#N)c3)c2F)=NNC1=O | 7.77 | 7.49 |  | 
11 | CCc1ccc(Cc2n[nH]c(=O)n2C)c(F)c1Oc1cc(Cl)cc(C#N)c1 |  | 8.70 | 8.40 | 
12 | C[C@H]1NC(Cc2ccc(Cl)c(Oc3cc(Cl)cc(C#N)c3)c2F)=NNC1=O | 7.96 | 8.10 | 7.14 | clearance (Liver microsomes): 130 µL/min/mg
13 | Cc1nc(Cc2ccc(Cl)c(Oc3cccc(Br)c3)c2)n[nH]c1=O | 6.48 |  |  | 
14 | Cc1n[nH]c(=O)n1C | < 4.00 |  |  | Activity [12]: inactive
15 | CC1OC(Cc2ccc(Cl)c(Oc3cc(Cl)cc(C#N)c3)c2F)=NNC1=O (stereo not given) | 7.89 | 8.30 | 7.47 | pIC50 (Cytochrome P450 3A4): 6.57
16 | Cc1ccc(Cc2n[nH]c(=O)n2C)c(F)c1Oc1cc(Cl)cc(C#N)c1 |  | 8.70 | 7.59 | pIC50 (Cytochrome P450 3A4): 4.92
17 | COc1c(Br)ccc(Cc2n[nH]c(=O)n2C)c1F | 4.47 |  |  | pKd [9]: 5.40
18 | Cn1c(Cc2ccc(Cl)c(Oc3cc(Cl)cc(C#N)c3)c2F)n[nH]c1=O | 7.96 | 8.10 | 7.41 | 
19 | Cc1cc(Cc2ccc(Cl)c(Oc3cccc(Br)c3)c2)n[nH]c1=O | 6.89 |  |  | 
20 | Cn1c(Cc2ccc(C3CC3)c(Oc3cc(Cl)cc(C#N)c3)c2F)n[nH]c1=O |  | 8.70 | 7.96 | 
21 | Cc1cc(Cc2ccc(Cl)c(Oc3cc(Cl)cc(C#N)c3)c2F)n[nH]c1=O |  | 9.00 | 7.72 | pEC50 [13]: 8.40
22 | Cn1c(Cc2ccc(Br)cc2F)n[nH]c1=O | < 5.00 |  |  | pKd [9]: 3.99
23 | CC1OC(Cc2ccc(Cl)c(Oc3cccc(Br)c3)c2)=NNC1=O (stereo not given) | 7.30 |  |  | 
